The source of these data is patent US20060009431A1, “Nitrosated and nitrosylated compounds, compositions and methods use” (NitroMed, Inc., priority 2003, published 2006).

Bounds are passed on as bounds.

System in one series: not given
Test: not given
Settings: not given
As a reminder, the melting point is the temperature of the solid-liquid transition. In turn, `CC(C)(CNC(=O)COc1ccc2c(c1)CC[C@@H]1[C@@H]2CC[C@]2(C)[C@@H](O)CC[C@@H]12)SN=O` [Example 42, 2-((1S,11S,14S,15S,10R)-14-Hydroxy-15-methyltetracyclo(8.7.0.0<2,7>0.0<11,15>)heptadeca-2,4,6-trien-5-yloxy)-N-(2-methyl-2-(nitrosothio)propyl)acetamide] showed a melting point of 40 °C.

For `CC(C)(S)CNC(=O)CO/N=C1\C[C@@H]2[C@H](CC[C@]3(C)[C@@H](O)CC[C@@H]23)c2ccc(O)cc21` [Example 47, 2-(((1S,11S,14S,15S,10R)-5,14-dihydroxy-15-methyltetracyclo(8.7.0.0<2,7>0.0<11,15>)heptadeca-2,4,6-trien-8-ylidene)azamethoxy)-N-(2-methyl-2-sulfanylpropyl)acetamide], the melting point is 87 to 90 °C.

For `CN(CCO[N+](=O)[O-])C(=O)CO/N=C1\C[C@@H]2[C@H](CC[C@]3(C)[C@@H](O)CC[C@@H]23)c2ccc(O)cc21`, the melting point was 125 to 127 °C (dec.).

Molecule `C[C@]12CC[C@@H]3c4ccc(OC(=O)c5ccccc5)cc4CC[C@H]3[C@@H]1CC[C@@H]2OC(=O)CCC(=O)O[C@H]1CO[C@H]2[C@@H]1OC[C@H]2O` [Example 57, (1S,11S,14S,15S,10R)-15-Methyl-5-phenylcarbonyloxytetracyclo(8.7.0.0<2,7>0.0<11,15>)heptadeca-2,4,6-trien-14-yl(1S,2S,5R,6R)-6-hydroxy-4,8-dioxabicyclo(3.3.0)oct-2-yl butane-1,4-dioate] returned a melting point of 136 to 137 °C.

Molecule `CC(C)(SN=O)C1COC(=O)N1CCOC(=O)COc1ccc2c(c1)CC[C@@H]1[C@@H]2CC[C@]2(C)[C@@H](O)CC[C@@H]12` (stereo partly drawn) showed a melting point of 40 °C.

For `C[C@]12CC[C@@H]3c4ccc(OC(=O)CCCC(=O)NCC5(SN=O)CCCCC5)cc4CC[C@H]3[C@@H]1CC[C@@H]2O`, the melting point was in the range of 50 to 52 °C.

In turn, `C[C@]12CC[C@@H]3c4ccc(O)cc4/C(=N/OCC(=O)N4CCC(CO[N+](=O)[O-])CC4)C[C@H]3[C@@H]1CC[C@@H]2O` yielded a melting point of 143 to 145 °C.

`C[C@]12CC[C@@H]3c4ccc(OC(=O)COCC(=O)O[C@H]5CO[C@H]6[C@@H]5OC[C@H]6O[N+](=O)[O-])cc4CC[C@H]3[C@@H]1CC[C@@H]2O`: the melting point was 146 to 149 °C.

For the molecule `COc1ccc(C=C2c3ccccc3C(=O)c3ccccc32)cc1OCC(=O)N1CCC(CO[N+](=O)[O-])CC1` [Example 53, 2-(2-Methoxy-5-((10-oxo(9-anthrylidene))methyl)phenoxy)-1-(4-((nitrooxy)methyl)piperidyl)ethan-1-one], the melting point is 63 to 65 °C.

Molecule `C[C@]12CC[C@@H]3c4ccc(O)cc4/C(=N/OCC(=O)N4CCC(CCO[N+](=O)[O-])CC4)C[C@H]3[C@@H]1CC[C@@H]2O` returned a melting point of 102 to 105 °C.

On to `C[C@]12CC[C@@H]3c4ccc(O)cc4/C(=N/OCC(=O)NCCO[N+](=O)[O-])C[C@H]3[C@@H]1CC[C@@H]2O`, for which the melting point is 140 °C (dec.).

Consider `C[C@]12CC[C@@H]3c4ccc(OC(=O)c5ccccc5)cc4CC[C@H]3[C@@H]1CC[C@@H]2OC(=O)CCC(=O)OCCC1(S)C2CC3CC(C2)CC1C3` (stereo partly drawn), for which the melting point was 140 to 143 °C.

`COc1ccc(/C=C/C(=O)Nc2ccccc2C(=O)OCC(=O)NCC(C)(C)SN=O)cc1OC` [Example 1, (N-(2-Methyl-2-(nitrosothio)propyl)carbamoyl)methyl 2-((2E)-3-(3,4-dimethoxyphenyl)prop-2-enoylamino)benzoate] returned a melting point of 135 to 137 °C.

Regarding `CC(C)(SN=O)C1COC(=O)N1CCOC(=O)CO/N=C1\C[C@@H]2[C@H](CC[C@]3(C)[C@@H](O)CC[C@@H]23)c2ccc(O)cc21` (stereo partly drawn), the melting point was in the range of 75 to 77 °C.

For a further series, the system named is human coronary artery smooth muscle cells (CASMC). In words: Vascular smooth muscle cell (SMC) antiproliferation assay. The format is cell-based. The following applies: Homo sapiens, viable cell count (Trypan Blue exclusion) ~68 hours after compound addition, n=4, read-out: IC 50 for the inhibition of proliferation of vascular smooth muscle cells, Nitrosated and/or Nitrosylated Compound. The procedure: Suppression of Proliferation of Human Coronary Artery Smooth Muscle Cells (CASMC)
Vascular Smooth Muscle Cell (SMC) Antiproliferation Assay
The cells used in this assay were human coronary artery smooth muscle cells (CASMC) supplied by Clonetics Corp. (San Diego, Calif.). They were maintained in SmGM-2 growth medium (Clonetics Corp.), which consisted of modified MCDB 131 medium supplemented with 5% (v/v) fetal bovine serum (FBS), 0.5 ng/mL human recombinant epidermal growth factor (EGF), 2 ng/mL human recombinant fibroblast growth factor (FGF), 5 μg/mL bovine insulin, 50 μg/mL gentamicin sulfate, and 50 ng/mL amphotericin B under humidified 95% air-5% CO2 at 37° C. Cells were used for experiments up to about 17 cumulative population doublings (i.e., passage 9); at this age they still stained positive for smooth muscle actin, a protein marker for smooth muscle cells.
For the SMC antiproliferation assay, the cells were seeded at 3×10^4 viable cells in 2 mL of SmGM-2 medium per well of a Corning 24 tissue culture well plate (Corning, N.Y.). Stock solutions of the test compounds were prepared just prior to addition to the cells by dissolving in DMSO at a concentration of 1000 times the highest concentration to be assayed. This stock solution was diluted, as required, with DMSO to lower concentrations. On the same day the cells were seeded, but after they had attached and spread out (about 3 hours), each test compound in varying concentrations (2 μL of the diluted stock solutions) was added to four replicate wells (n=4) for each concentration. Control cultures received 2 μL of DMSO per well (n=4). On the following morning, the cultures were examined microscopically and their condition recorded. On the third day after test compound addition (˜68 hours), the cultures were examined microscopically again and the viable cells counted with an hemacytometer following trypsinization with 0.25% trypsin-1 mM EDTA. Trypan Blue dye exclusion was used to discriminate between viable and dead cells. The results were usually presented as % of the control viable cell count (mean±SEM) and were used to determine the IC50 for the inhibition of proliferation of vascular smooth muscle cells.
For `CC(C)(CNC(=O)COc1ccc2c(c1)CC[C@@H]1[C@@H]2CC[C@]2(C)[C@@H](O)CC[C@@H]12)SN=O` [Example 42, 2-((1S,11S,14S,15S,10R)-14-Hydroxy-15-methyltetracyclo(8.7.0.0<2,7>0.0<11,15>)heptadeca-2,4,6-trien-5-yloxy)-N-(2-methyl-2-(nitrosothio)propyl)acetamide], the IC50 amounted to 9 µM.

As to `C[C@]12CC[C@@H]3c4ccc(OC(=O)c5ccccc5)cc4CC[C@H]3[C@@H]1CC[C@@H]2OC(=O)CCC(=O)O[C@H]1CO[C@H]2[C@@H]1OC[C@H]2O[N+](=O)[O-]` [Example 15, (1S,11S,14S,15S,10R)-15-Methyl-5-phenylcarbonyloxytetracyclo(8.7.0.0<2,7>0.0<11,15>)heptadeca-2,4,6-trien-14-yl(1S,2S,5S,6R)-6-(nitrooxy)-4,8-dioxabicyclo(3.3.0)oct-2-yl butane-1,4-dioate], the IC50 is > 80 µM.

Regarding `CC1(C)CCC(CCOC(=O)CCC(=O)Oc2ccc3c(c2)CC[C@@H]2[C@@H]3CC[C@]3(C)[C@@H](O)CC[C@@H]23)(SN=O)CC1` [Example 28i, (1S,11S,14S,15S,10R)-14-Hydroxy-15-methyltetracyclo(8.7.0.0<2,7>0.0<11,15>)heptadeca-2,4,6-trien-5-yl 2-(4,4-dimethyl-1-(nitrosothio)cyclohexyl)ethyl butane-1,4-dioate], the IC50 was 13 µM.

Take `C[C@]12CC[C@@H]3c4ccc(OC(=O)CC5(SN=O)C6CC7CC(C6)CC5C7)cc4CC[C@H]3[C@@H]1CC[C@@H]2O` (stereo partly drawn) [Example 18, (1S,11S,14S,15S,10R)-14-hydroxy-15-methyltetracyclo(8.7.0.0<2,7>0.0<11,15>)heptadeca-2,4,6-trien-5-yl 2-(2-(nitrosothio)adamantan-2-yl)acetate]: the IC50 was 9 µM.

On to `C[C@]12CC[C@@H]3c4ccc(OC(=O)CCC(=O)OCCC5(SN=O)C6CC7CC(C6)CC5C7)cc4CC[C@H]3[C@@H]1CC[C@@H]2O` (stereo partly drawn) [Example 25, (1S,11S,14S,15S,10R)-14-Hydroxy-15-methyltetracyclo(8.7.0.0<2,7>0.0<11,15>)heptadeca-2,4,6-trien-5-yl 2-(2-(nitrosothio)adamantan-2-yl)ethyl butane-1,4-dioate], for which the IC50 worked out at 4 µM.

The same series, now with this note: viable cell count (Trypan Blue exclusion) ~68 hours after compound addition, n=4.
Take `C[C@]12CC[C@@H]3c4ccc(OC(=O)CC5(SN=O)C6CC7CC(C6)CC5C7)cc4CC[C@H]3[C@@H]1CC[C@@H]2OC(=O)C(F)(F)F` (stereo partly drawn) [Example 17c, (1S,11S,14S,15S,10R)-15-Methyl-5-(2-(2-(nitrosothio)adamantan-2-yl)acetyloxy)tetracyclo(8.7.0.0<2,7>0.0<11,15>)heptadeca-2,4,6-trien-14-yl 2,2,2-trifluoroacetate]: the “IC 50 for the inhibition of proliferation of vascular smooth muscle cells, Nitrosated and/or Nitrosylated Compound” value is “Non-inhibitory”.

With `C[C@]12CC[C@@H]3c4ccc(OC(=O)CC5(S)C6CC7CC(C6)CC5C7)cc4CC[C@H]3[C@@H]1CC[C@@H]2OC(=O)C(F)(F)F` (stereo partly drawn) [Example 17b, (1S,11S,14S,15S,10R)-15-methyl-5-(2-(2-sulfanyladamantan-2-yl)acetyloxy)tetracyclo(8.7.0.0<2,7>0.0<11,15>)heptadeca-2,4,6-trien-14-yl 2,2,2-trifluoroacetate], the “IC 50 for the inhibition of proliferation of vascular smooth muscle cells, Non-nitrosated and/or Non-nitrosylated Compound” value was “cytostatic”.

Turning to `CN(CCO[N+](=O)[O-])C(=O)CO/N=C1\C[C@@H]2[C@H](CC[C@]3(C)[C@@H](O)CC[C@@H]23)c2ccc(O)cc21` [35 b], the “IC 50 for the inhibition of proliferation of vascular smooth muscle cells, Nitrosated and/or Nitrosylated Compound” value is on record as “Non-inhibitory”.

The series is the same for the next values; noted with them: viable cell count (Trypan Blue exclusion) ~68 hours after compound addition, n=4, read-out: IC 50 for the inhibition of proliferation of vascular smooth muscle cells, Non-nitrosated and/or Non-nitrosylated Compound.
As to `CC(C)(S)CNC(=O)CO/N=C1\C[C@@H]2[C@H](CC[C@]3(C)[C@@H](O)CC[C@@H]23)c2ccc(O)cc21` [Example 47, 2-(((1S,11S,14S,15S,10R)-5,14-dihydroxy-15-methyltetracyclo(8.7.0.0<2,7>0.0<11,15>)heptadeca-2,4,6-trien-8-ylidene)azamethoxy)-N-(2-methyl-2-sulfanylpropyl)acetamide], the IC50 is > 80 µM.

With `CC1(C)CCC(S)(CCOC(=O)CCC(=O)Oc2ccc3c(c2)CC[C@@H]2[C@@H]3CC[C@]3(C)[C@@H](O)CC[C@@H]23)CC1` [Example 28h, (1S,11S,14S,15S,10R)-14-hydroxy-15-methyltetracyclo(8.7.0.0<2,7>0.0<11,15>)heptadeca-2,4,6-trien-5-yl 2-(4,4-dimethyl-1-sulfanylcyclohexyl)ethyl butane-1,4-dioate], the IC50 turned out to be 14 µM.

In the case of `C[C@]12CC[C@@H]3c4ccc(OC(=O)c5ccccc5)cc4CC[C@H]3[C@@H]1CC[C@@H]2OC(=O)CCC(=O)O[C@H]1CO[C@H]2[C@@H]1OC[C@H]2O` [Example 57, (1S,11S,14S,15S,10R)-15-Methyl-5-phenylcarbonyloxytetracyclo(8.7.0.0<2,7>0.0<11,15>)heptadeca-2,4,6-trien-14-yl(1S,2S,5R,6R)-6-hydroxy-4,8-dioxabicyclo(3.3.0)oct-2-yl butane-1,4-dioate], the IC50 was > 80 µM.

In the case of `C[C@]12CC[C@@H]3c4ccc(OC(=O)CC5(S)C6CC7CC(C6)CC5C7)cc4CC[C@H]3[C@@H]1CC[C@@H]2O` (stereo partly drawn) [Example 49, (1S,11S,14S,15S,10R)-14-hydroxy-15-methyltetracyclo(8.7.0.0<2,7>0.0<11,15>)heptadeca-2,4,6-trien-5-yl 2-(2-sulfanyladamantan-2-yl)acetate], the IC50 stood at 4 µM.

In the case of `C[C@]12CC[C@@H]3c4ccc(O)cc4C(=NOCC(=O)O)C[C@H]3[C@@H]1CC[C@@H]2O` [Example 35a, 2-(((1S,11S,14S,15S,10R)-5,14-dihydroxy-15-methyltetracyclo(8.7.0.0<2,7>0.0<11-15>)heptadeca-2,4,6-trien-8-ylidene)azamethoxy)acetic acid, reference compound], the IC50 is > 80 µM.
